Patent US6033669A, “Methods for generating cytotoxic T cells and treatment of diseases thereby” (priority 1992, dated 2000)
Where two headings read alike, the source gives them in different places.

Tests used:
EL4 and RMA-S cells = assay type: cell-based, mice
H-2D^b = molecular target: T1, H-2D^b (Mus musculus, UniProt P01899); test: MHC-1 upregulation on RMA-S cells (D^b); assay type: cell-based, murine; details: RMA-S cells with peptide NP366-374 (50 μM), 6 h; FIG. 8
T1 sequence (P01899 25-362): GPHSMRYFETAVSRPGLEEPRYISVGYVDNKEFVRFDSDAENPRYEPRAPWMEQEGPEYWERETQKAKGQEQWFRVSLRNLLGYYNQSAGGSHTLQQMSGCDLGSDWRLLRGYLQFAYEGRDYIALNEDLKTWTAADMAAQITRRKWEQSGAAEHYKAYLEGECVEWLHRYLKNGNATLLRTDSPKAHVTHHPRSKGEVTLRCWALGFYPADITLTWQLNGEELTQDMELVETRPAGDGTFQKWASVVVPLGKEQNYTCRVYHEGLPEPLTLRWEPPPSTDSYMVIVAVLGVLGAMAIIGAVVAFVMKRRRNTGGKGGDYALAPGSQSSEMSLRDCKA
T1 sequence (P01887 21-119 partner): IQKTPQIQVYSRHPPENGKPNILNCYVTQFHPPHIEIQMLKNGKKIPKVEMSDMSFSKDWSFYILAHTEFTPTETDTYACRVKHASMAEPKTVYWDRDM

RMA-S cells = test: Membrane recycling of glycopeptide after pronase treatment; assay type: cell-based; details: pronase treated RMA-S cells, 37° C.; data not shown
Experimental: Panel A: RMA-s cells were incubated for 24 hours at 26° C. to induce expression of empty D^b MHC-1 chains at the cell surface, and at 37° C., and stained for D^b expression. Panel B: Removal of D^b expression by pronase treatment of RMA-S cells, preincubated at 26° C. Pronase treatment for 2 h and 4 h. D^b removal is complete at 4 h. Panels C and E: 26° C. induced RMA-S cells were treated with the glycopeptides Gal2 -CSG11 (panel C) or Gal2 CAS10 (panel E), 300 μM for 2 h at 37° C., washed and stained for Gal2 expression. Panels D and F: Glycopeptide treated RMA-S cells as in panels C and E were pronase treated to remove Db and glycopeptide expression, washed and further incubated at 37° C. to allow re-expression of glycopeptides and stained for Gal2 expression.
The capacity of the conjugate to be recycled may be assessed by incubating the cells (with bound conjugate) at 37° C. whereupon the glycopeptide will internalise. The temperature may then be lowered and the cells treated with a proteolytic enzyme (e.g. Pronase) to strip off exposed peptide/carbohydrate conjugate. On reheating, recycled conjugate may be detected by probing for the Gal2 epitope using the anti-Gal2 antibody.
Described in FIGS. 10D and F.

[1] = system: pep 9(PR8)-coated RMA target cells; test: Kinetics of CTL activity after one s.c. injection of peptide (51Cr release); assay type: in vivo, mice; details: primed once with 100 μg
[2] = 100 μg s.c., restimulated with 5 μM in vitro
[3] = priming 1 μg, restimulation 0.05 μM, effector:target 20:1
[4] = priming 1 μg, restimulation 0.05 μM, effector:target 40:1
[5] = priming 1 μg, restimulation 5.00 μM, effector:target 20:1
[6] = priming 1 μg, restimulation 5.00 μM, effector:target 40:1
[7] = priming 10 μg, restimulation 0.05 μM, effector:target 20:1
[8] = priming 10 μg, restimulation 0.05 μM, effector:target 40:1
[9] = priming 10 μg, restimulation 5.00 μM, effector:target 20:1
[10] = priming 10 μg, restimulation 5.00 μM, effector:target 40:1
[11] = priming 100 μg, restimulation 0.05 μM, effector:target 20:1
[12] = priming 100 μg, restimulation 0.05 μM, effector:target 40:1
[13] = priming 100 μg, restimulation 5.00 μM, effector:target 20:1
[14] = priming 100 μg, restimulation 5.00 μM, effector:target 40:1

CCN(CC)CCCC(C)Nc1ccnc2cc(Cl)ccc12 (stereo not shown) [chloroquine]
effect on return of susceptibility to CTL killing (EL4 and RMA-S cells; pronase treated peptide-coated cells incubated at 37° C., data not shown): blocked
effect on peptide mediated MHC-1 (H-2D^b) upregulation (H-2D^b): inhibits this upregulation
effect on return of the Gal2 epitope to the cell surface (RMA-S cells): inhibited

ASNENMETM [pep 9(PR8)]
CTL activity at day 30 after priming [1]: lower level of CTL activity could still be detected
time of peak CTL activity after the immunization ([1]; restimulated with 5 μM, effector:target 60:1): 7 days
killing of peptide treated RMA-S and EL-4 target cells by influenza A (PR8) specific CTL (EL4 and RMA-S cells; FIG. 11): strongly killed
CTL response against pep 9(PR8)-coated RMA and EL4 cells (EL4 target cells; [2]): strong CTL response
killing of virus-infected target cells (EL4 target cells; [2]): not killed
lysis of pep 9(PR8)-coated EL4 cells by CTL depleted for CD8^+ T cells (EL4 target cells; FIG. 7a): failed to lyse
effect of depletion of CD4^+ T cells on cytolytic activity (EL4 target cells; FIG. 7a, pep 9(PR8)-coated target cells): did not affect the cytolytic activity
CTL response (EL4 target cells; immunization with 10 μg and 1 μg): less or even no CTL response
MHC restriction of peptide-induced cytotoxicity (EL4 target cells; mouse, in vivo): H-2D^b restricted
specificity of induced CTL (EL4 target cells; mouse, in vivo): preferentially killed their corresponding peptide-coated and virus-infected cells
EL4 target lysis (%) PR8-infected (EL4 target cells; [3]): 10.50%
EL4 target lysis (%) Untreated (EL4 target cells; [3]): 3.32%
EL4 target lysis (%) pep9(PR8)-coated (EL4 target cells; [3]): 15.54%
EL4 target lysis (%) PR8-infected (EL4 target cells; [4]): 12.43%
EL4 target lysis (%) Untreated (EL4 target cells; [4]): 4.08%
EL4 target lysis (%) pep9(PR8)-coated (EL4 target cells; [4]): 16.44%
EL4 target lysis (%) PR8-infected (EL4 target cells; [5]): 5.54%
EL4 target lysis (%) Untreated (EL4 target cells; [5]): 2.66%
EL4 target lysis (%) pep9(PR8)-coated (EL4 target cells; [5]): 9.28%
EL4 target lysis (%) PR8-infected (EL4 target cells; [6]): 6.88%
EL4 target lysis (%) Untreated (EL4 target cells; [6]): 3.34%
EL4 target lysis (%) pep9(PR8)-coated (EL4 target cells; [6]): 11.85%
EL4 target lysis (%) PR8-infected (EL4 target cells; [7]): 23.75%
EL4 target lysis (%) Untreated (EL4 target cells; [7]): 4.14%
EL4 target lysis (%) pep9(PR8)-coated (EL4 target cells; [7]): 34.60%
EL4 target lysis (%) PR8-infected (EL4 target cells; [8]): 31.19%
EL4 target lysis (%) Untreated (EL4 target cells; [8]): 5.74%
EL4 target lysis (%) pep9(PR8)-coated (EL4 target cells; [8]): 45.52%
EL4 target lysis (%) PR8-infected (EL4 target cells; [9]): 13.98%
EL4 target lysis (%) Untreated (EL4 target cells; [9]): 4.19%
EL4 target lysis (%) pep9(PR8)-coated (EL4 target cells; [9]): 22.09%
EL4 target lysis (%) PR8-infected (EL4 target cells; [10]): 15.04%
EL4 target lysis (%) Untreated (EL4 target cells; [10]): 5.63%
EL4 target lysis (%) pep9(PR8)-coated (EL4 target cells; [10]): 23.54%
EL4 target lysis (%) PR8-infected (EL4 target cells; [11]): 30.07%
EL4 target lysis (%) Untreated (EL4 target cells; [11]): 0.51%
EL4 target lysis (%) pep9(PR8)-coated (EL4 target cells; [11]): 50.73%
EL4 target lysis (%) PR8-infected (EL4 target cells; [12]): 30.76%
EL4 target lysis (%) Untreated (EL4 target cells; [12]): 0.12%
EL4 target lysis (%) pep9(PR8)-coated (EL4 target cells; [12]): 59.42%
EL4 target lysis (%) PR8-infected (EL4 target cells; [13]): 8.50%
EL4 target lysis (%) Untreated (EL4 target cells; [13]): 4.21%
EL4 target lysis (%) pep9(PR8)-coated (EL4 target cells; [13]): 34.73%
EL4 target lysis (%) PR8-infected (EL4 target cells; [14]): 7.00%
EL4 target lysis (%) Untreated (EL4 target cells; [14]): 4.61%
EL4 target lysis (%) pep9(PR8)-coated (EL4 target cells; [14]): 43.68%
